The text below walks through data of patent US9862684B2, “Modulation of K2P channels” (The Regents of the University of California, priority 2013, dated 2018).

As a reminder, the EC50 is the concentration needed to bring the measured effect to its halfway point. Low readings indicate greater potency, high ones weaker potency.

The assay concerns the target T1, K2P10.1 (TREK-2) (Mus musculus, UniProt Q8BUW1).
T1 construct: expressed in transfected cells; host or cells: Xenopus oocytes
T1 sequence (Q8BUW1 1-535): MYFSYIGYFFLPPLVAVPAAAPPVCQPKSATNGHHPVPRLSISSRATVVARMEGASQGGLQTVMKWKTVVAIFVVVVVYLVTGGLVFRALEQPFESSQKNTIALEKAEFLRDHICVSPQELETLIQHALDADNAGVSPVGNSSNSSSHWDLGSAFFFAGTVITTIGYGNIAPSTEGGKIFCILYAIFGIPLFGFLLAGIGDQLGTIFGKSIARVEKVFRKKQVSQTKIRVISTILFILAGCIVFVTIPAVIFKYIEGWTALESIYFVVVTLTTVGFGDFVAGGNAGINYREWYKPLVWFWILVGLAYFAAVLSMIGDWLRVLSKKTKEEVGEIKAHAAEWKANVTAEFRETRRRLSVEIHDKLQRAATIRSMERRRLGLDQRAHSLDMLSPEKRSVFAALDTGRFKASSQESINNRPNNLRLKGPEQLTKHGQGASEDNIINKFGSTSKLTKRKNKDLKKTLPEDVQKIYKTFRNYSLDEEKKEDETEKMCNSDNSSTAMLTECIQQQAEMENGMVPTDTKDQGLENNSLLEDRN
Description: Two-electrode voltage clamp, Xenopus oocytes expressing K2P10.1 (TREK-2). Format: cell-based, Murine. The procedure: FIG. 7 ML67-33 is a selective activator of heat- and mechanosensitive K2P channels. a-f, Exemplar I-V curves showing the effect of ML67-33 on a, K2P10.1 (TREK-2), b, K2P4.1 (TRAAK), c, K2P3.1 (TASK-1), d, K2P9.1 (TASK-3), e, K2P5.1 (TASK-2), and f, K2P18.1 (TRESK) measured in Xenopus oocytes in 2 mM [K^+]o pH 7.4. Currents were elicited by a voltage ramp from −150 to 50 mV, from a holding potential of −80 mV. g, Quantification of the effect of ML67-33 on the indicated channels. Data (mean±s.e., n≧6, N≧2) was normalized to basal channel activity and fitted to the Hill equation. […] Error bars indicate s.e., n≧6, N≧2.
Murine K2P channels were cloned into pGEMHE/pMO {Bagriantsev, 2011}, IRES-GFP (Invitrogen), or pYES2-MET25 (high copy 2μ, URA3) {Minor, 1999} for expression in oocytes, HEK-293T cells, and yeast, respectively, using standard molecular biology procedures, and verified by DNA sequencing.
Two-electrode voltage clamp recordings were performed from defolliculated stage V-VI Xenopus oocytes 24-48 hours after injection with 0.015-6.0 ng cRNA, using microelectrodes (0.3-3.0 MΩ) filled with 3M KCl. Data was acquired using the GeneClamp 500B (MDS Analytical Technologies) amplifier controlled by the pClamp software (Molecular Devices), and digitized at 1 kHz using Digidata 1332A (MDS Analytical Technologies). Recording solutions (mM): 2K (96 NaCl, 2 KCl, 1.8 CaCl2, 2 MgCl2), 90K (90 KCl, 8 NaCl, 1.8 CaCl2, 2 MgCl2), were buffered 5 mM HEPES pH 7.4. For K2P recordings, currents we elicited by a 1 second long ramp from −150 to +50 mV from a holding potential of −80 mV (2K), or −100 to +50 mV from a holding potential of 0 mV (90K). For KCNQ2 recordings, currents were elicited by a step protocol from −120 to 60 mV, in 20 mV increments, from a holding potential of −80 mV. Patch-clamp recordings from HEK-293T cells were performed using microelectrodes (2-3 MΩ) filled with 1M KCl. Data was acquired using the Axopatch 200B amplifier controlled by pClamp software, and digitized at 1 kHz using Digidata 1332A. Recording solutions (mM): intracellular (145 KCl, 5 EGTA, 3 MgCl2,) extracellular (150 NaCl, 5 KCl, 3 MgCl2, 1 CaCl2) were buffered with 5 mM HEPES pH 7.2 and 7.4, respectively. Currents were elicited by a 1 second long ramp from −150 to +50 mV from a holding potential of −80 mV. Data were fitted with a modified Hill's equation: I=Imin+(Imax−Imin)/(1+10^((Log EC50−Log [C])*H)), where Imax and Imin are maximal and minimal current values, respectively, EC50 is a half-maximal effective concentration of the compound, and H is the Hill coefficient.
There are six K2P subgroups {Noel, 2011} (FIG. 11). […]
Background: In two-electrode clamp one electrode senses voltage and the other passes current.

Turning to `CC1(C)c2cc(Cl)ccc2N(CCc2nnn[nH]2)c2ccc(Cl)cc21` [ML67-33, 2,7-dichloro-9,9-dimethyl-10-[2-(1H-tetrazol-5-yl)ethyl]acridine], the “Emax (fold)” value (FIG. 7 legend: at 100 μM) is listed as 11.4±1.8 fold. In addition, for the setting “Xenopus oocytes, 2 mM [K+]o pH 7.4”, the midpoint of the response, the EC50, lay at 30.2 ± 1.4 µM.
